Measured values reported in ChEMBL document CHEMBL4651402, “Screening of ~5500 FDA-approved drugs and clinical candidates for anti-SARS-CoV-2 activity” (2021).

System: SARS-CoV-2
Assay: microbe, parasite or virus in culture
Settings: Severe acute respiratory syndrome coronavirus 2, Vero C1008, 48 h

Row | Structure (SMILES) | IC50 | IC50 (read-out: pIC50 (converted))
1 | OCc1ccccc1O[C@@H]1O[C@H](CO)[C@@H](O)[C@H](O)[C@H]1O [SALICIN] | > 20 µM | > 20 µM
2 | CC(=O)OC(CC(=O)O)C[N+](C)(C)C (stereo not drawn) | > 20 µM | > 20 µM
3 | CNC(=O)c1cc(Oc2ccc(NC(=O)Nc3ccc(Cl)c(C(F)(F)F)c3)c(F)c2)ccn1 [REGORAFENIB] | > 20 µM | > 20 µM
4 | Cn1cnc2c1c(=O)[nH]c(=O)n2C [THEOBROMINE] | > 20 µM | > 20 µM
5 | Cc1nnc2n1-c1ccc(Cl)cc1C(c1ccccc1)=NC2 [ALPRAZOLAM] | > 20 µM | > 20 µM
6 | CC[C@@]1(c2ccccc2)NC(=O)N(C)C1=O | > 20 µM | > 20 µM
7 | NCCNCCNCCN [TRIENTINE] | > 20 µM | > 20 µM
8 | CCOC(=O)N1CCC(=C2c3ccc(Cl)cc3CCc3cccnc32)CC1 [LORATADINE] | > 20 µM | > 20 µM
9 | NCCc1c[nH]c2ccccc12 [TRYPTAMINE] | > 20 µM | > 20 µM
10 | CCCCCCC(=O)OCCN1CCN(CCCN2c3ccccc3Sc3ccc(C(F)(F)F)cc32)CC1 [FLUPHENAZINE ENANTHATE] | > 20 µM | > 20 µM
11 | CCC(C)SSc1ncc[nH]1 (stereo not drawn) [PX-12] | > 20 µM | > 20 µM
12 | CN1c2ccccc2[C@H](NCCCCCCC(=O)O)c2ccc(Cl)cc2S1(=O)=O | > 20 µM | > 20 µM
13 | CNc1cccc(NC(=O)NC2N=C(c3ccccn3)c3ccccc3N(CC(=O)C(C)(C)C)C2=O)c1 (stereo not drawn) | > 20 µM | > 20 µM
14 | C#Cc1cccc(Nc2ncnc3cc4c(cc23)OCCOCCOCCO4)c1 [ICOTINIB] | > 20 µM | > 20 µM
15 | Nc1ncnc2c1ncn2[C@@H]1O[C@H](CO)[C@@H](O)[C@H]1O [ADENOSINE] | > 20 µM | > 20 µM
16 | C#C[C@]1(O)CC[C@H]2[C@@H]3CCC4=CC(=O)CC[C@@H]4[C@H]3CC[C@@]21C [NORETHINDRONE] | > 20 µM | > 20 µM
17 | Nc1nc2c(ncn2COCCO)c(=O)[nH]1 [ACYCLOVIR] | > 20 µM | > 20 µM
18 | C[C@H]1N=C(N)O[C@@H]1c1ccccc1 | > 20 µM | > 20 µM
19 | O=C(OC(C(F)(F)F)C(F)(F)F)N1CCN(Cc2ccc(C(F)(F)F)cc2N2CCCC2)CC1 [ELCUBRAGISTAT] | > 20 µM | > 20 µM
20 | CC(C)(O)C(=O)Nc1ccc([N+](=O)[O-])c(C(F)(F)F)c1 [HYDROXYFLUTAMIDE] | > 20 µM | > 20 µM
21 | CCN(CC)Cc1cc(Nc2ccnc3cc(Cl)ccc23)ccc1O [AMODIAQUINE] | > 20 µM | > 20 µM
22 | CCN1CC(NC(=O)c2cc(Cl)c(N)cc2OC)CN1CC [DAZOPRIDE] | > 20 µM | > 20 µM
23 | CC1=CC(=O)C2=C(C)CCC3C(C)C(=O)OC3C12 (stereo not drawn) | > 20 µM | > 20 µM
24 | Oc1ccc(Cl)cc1Sc1cc(Cl)ccc1O [FENTICLOR] | > 20 µM | > 20 µM
25 | CC(=O)OCC1OC(n2ccc(=O)[nH]c2=O)C(OC(C)=O)C1OC(C)=O (stereo not drawn) | > 20 µM | > 20 µM

Row | Structure (SMILES) | IC50 | IC50 (read-out: pIC50 (converted))
26 | C[C@@H](O[C@H]1OCCN(Cc2n[nH]c(=O)[nH]2)[C@H]1c1ccc(F)cc1)c1cc(C(F)(F)F)cc(C(F)(F)F)c1 [APREPITANT] | > 20 µM | > 20 µM
27 | CCC1(c2c[nH]cn2)Cc2ccccc2C1 [ATIPAMEZOLE] | > 20 µM | > 20 µM
28 | COc1ncnc(NS(=O)(=O)c2ccc(N)cc2)c1OC [SULFADOXINE] | > 20 µM | > 20 µM
29 | C1=CN2CC(c3cccs3)N=C2S1 (stereo not drawn) | > 20 µM | > 20 µM
30 | CCN(CC)C(C)CN1c2ccccc2Sc2ccccc21 (stereo not drawn) [ETHOPROPAZINE] | > 20 µM | > 20 µM
31 | CC(=O)O[C@H]1CC[C@@]2(C)C(=CC[C@@H]3[C@@H]2CC[C@]2(C)C(=O)CC[C@@H]32)C1 [DEHYDROEPIANDROSTERONE ACETATE] | > 20 µM | > 20 µM
32 | C=C1c2cccc(O)c2C(=O)C2=C(O)[C@]3(O)C(=O)C(C(N)=O)=C(O)[C@@H](N(C)C)[C@@H]3[C@@H](O)[C@H]12 [METHACYCLINE] | > 20 µM | > 20 µM
33 | Cc1onc(-c2c(Cl)cccc2Cl)c1C(=O)N[C@@H]1C(=O)N2[C@@H]1SC(C)(C)[C@@H]2C(=O)O [DICLOXACILLIN] | > 20 µM | > 20 µM
34 | O=C1CCN2C(=C1C(=O)NC1CCN(CCCn3c(=O)[nH]c4ccccc43)CC1)Nc1ccccc12 | > 20 µM | > 20 µM
35 | C=CCC(N)c1ccccc1-c1noc2ccccc12 (stereo not drawn) | > 20 µM | > 20 µM
36 | CC1=C(CC(=O)O)c2cc(F)ccc2/C1=C\c1ccc([S+](C)[O-])cc1 (stereo not drawn) | > 20 µM | > 20 µM
37 | Cc1cccc(N(C)C(=S)Oc2ccc3ccccc3c2)c1 [TOLNAFTATE] | > 20 µM | > 20 µM
38 | Nc1cc(C(Cl)=C(Cl)Cl)c(S(N)(=O)=O)cc1S(N)(=O)=O [CLORSULON] | > 20 µM | > 20 µM
39 | C[C@H](C#Cc1ccc(Cc2ccc(F)cc2)s1)N(O)C(N)=O [ATRELEUTON] | > 20 µM | > 20 µM
40 | OCc1cccnc1 [NICOTINYL ALCOHOL] | > 20 µM | > 20 µM
41 | NCC(O)c1cccc(O)c1 (stereo not drawn) [NORFENEFRINE] | > 20 µM | > 20 µM
42 | COc1ccc(-c2cc(=O)c3c(OC)cc(OCC(=O)O)cc3o2)cc1OC [RECOFLAVONE] | > 20 µM | > 20 µM
43 | CCOc1ccc2nccc([C@@H](O)[C@@H]3C[C@@H]4CCN3C[C@@H]4CC)c2c1 [ETHYLHYDROCUPREINE] | > 20 µM | > 20 µM
44 | NCCCC[C@H](NC(=O)[C@@H](Cc1cc(Br)c(O)c(Br)c1)NC(=O)N1CCC(N2Cc3ccccc3NC2=O)CC1)C(=O)N1CCN(c2ccncc2)CC1 [OLCEGEPANT] | > 20 µM | > 20 µM
45 | Clc1ccc(CO/N=C(\Cn2ccnc2)c2ccc(Cl)cc2Cl)c(Cl)c1 [OXICONAZOLE] | > 20 µM | > 20 µM
46 | CCCCNC(=O)NS(=O)(=O)c1ccc(N)cc1 [CARBUTAMIDE] | > 20 µM | > 20 µM
47 | CC1=C(C(=O)O)N2C(=O)C(NC(=O)C(N)c3ccc(O)cc3)C2SC1 (stereo not drawn) | > 20 µM | > 20 µM
48 | NC[C@@H]1O[C@H](O[C@H]2[C@@H](O)[C@H](O[C@@H]3[C@@H](O)[C@H](N)C[C@H](N)[C@H]3O[C@H]3O[C@H](CN)[C@@H](O)[C@H](O)[C@H]3N)O[C@@H]2CO)[C@H](N)[C@@H](O)[C@@H]1O [FRAMYCETIN] | > 20 µM | > 20 µM
49 | CC(=O)N(O)C/C=C/c1cccc(Oc2ccccc2)c1 | > 20 µM | > 20 µM
50 | C[C@H](Cn1cnc2c(N)ncnc21)OCP(=O)(O)O [TENOFOVIR ANHYDROUS] | > 20 µM | > 20 µM

Row | Structure (SMILES) | IC50 | IC50 (read-out: pIC50 (converted))
51 | C=C[C@@H]1C[C@]1(NC(=O)[C@@H]1C[C@@H]2CN1C(=O)[C@H](C(C)(C)C)NC(=O)O[C@@H]1C[C@H]1CCCCCc1nc3ccc(OC)cc3nc1O2)C(=O)NS(=O)(=O)C1CC1 [GRAZOPREVIR ANHYDROUS] | > 20 µM | > 20 µM
52 | O=C1c2cc(Cl)ccc2OC2CCON12 (stereo not drawn) [SECLAZONE] | > 20 µM | > 20 µM
53 | COC(=O)C1=C(CN2CC(F)(F)C[C@H]2C(=O)O)NC(c2nccs2)=N[C@@]1(C)c1ccc(F)cc1 | > 20 µM | > 20 µM
54 | CC12C=CC(=O)C=C1CCC1C2C(O)CC2(C)C1CC[C@]2(O)C(=O)COC(=O)CCC(=O)O (stereo partly drawn) | > 20 µM | > 20 µM
55 | CC(C)NCC(O)c1ccc(NS(C)(=O)=O)cc1 (stereo not drawn) [SOTALOL] | > 20 µM | > 20 µM
56 | CCCCOc1cc(C(=O)OCCN(CC)CC)ccc1N [BENOXINATE] | > 20 µM | > 20 µM
57 | CCc1ccc(C(=O)C(C)CN2CCCCC2)cc1 (stereo not drawn) [EPERISONE] | > 20 µM | > 20 µM
58 | Nc1ccn([C@H]2C[C@H](O)[C@@H](CO)O2)c(=O)n1 [DOXECITINE] | > 20 µM | > 20 µM
59 | CC(C)(C)NC(=O)c1ccc(Oc2cc(F)c(CC(=O)O)cc2Cl)c(NS(=O)(=O)c2ccc(C3CC3)cc2Cl)c1 [VIDUPIPRANT] | > 20 µM | > 20 µM
60 | COc1ccc(-c2nnc(C)nc2-c2ccc(OC)cc2)cc1 [ANITRAZAFEN] | > 20 µM | > 20 µM
61 | CN1CCN(C(c2ccccc2)c2ccccc2)CC1 [CYCLIZINE] | > 20 µM | > 20 µM
62 | CN1CCN(C(c2ccccc2)c2ccc(Cl)cc2)CC1 (stereo not drawn) [CHLORCYCLIZINE] | > 20 µM | > 20 µM
63 | COc1ccc(N(C)c2nc(C)nc3ccccc23)cc1 [VERUBULIN] | > 20 µM | > 20 µM
64 | CN1CC[C@]2(C)c3cc(OC(=O)Nc4ccccc4)ccc3N(C)[C@H]12 [BUNTANETAP] | > 20 µM | > 20 µM
65 | Cc1cc(=O)n(-c2ccccc2)n1C [ANTIPYRINE] | > 20 µM | > 20 µM
66 | CCCc1nc(C)c2c(=O)nc(-c3cc(S(=O)(=O)N4CCN(CC)CC4)ccc3OCC)[nH]n12 | > 20 µM | > 20 µM
67 | C=CCNC1=C2C[C@@H](C)C[C@H](OC)[C@H](O)[C@@H](C)/C=C(/C)[C@H](OC(N)=O)[C@@H](OC)/C=C\C=C(\C)C(=O)NC(=CC1=O)C2=O | > 20 µM | > 20 µM
68 | CC1(C)OC2CC(=O)OCC23C1CC(=O)C1(C)C3CCC2(C)C(c3ccoc3)OC(=O)C3OC321 (stereo not drawn) | > 20 µM | > 20 µM
69 | O=C(CCCN1CCC(O)(c2ccc(Cl)cc2)CC1)c1ccc(F)cc1 [HALOPERIDOL] | > 20 µM | > 20 µM
70 | Cc1cc(CCCCCCCOc2ccc(C3=NCCO3)cc2)on1 [DISOXARIL] | > 20 µM | > 20 µM
71 | CCOP(=O)(O)OCC [DIETHYL HYDROGEN PHOSPHATE] | > 20 µM | > 20 µM
72 | O=C1NOCC1/N=C/c1ccc(/C=N/C2CONC2=O)cc1 (stereo not drawn) [TERIZIDONE] | > 20 µM | > 20 µM
73 | N=C(N)N1CCCC(CNC(=O)CC(NS(=O)(=O)c2ccc3ccccc3c2)C(=O)N(CC(=O)O)C2CC2)C1 (stereo not drawn) | > 20 µM | > 20 µM
74 | Nc1nc2ccc(OC(F)(F)F)cc2s1 [RILUZOLE] | > 20 µM | > 20 µM
